As a reminder, the IC50 is the concentration needed to halve the response being measured. Read a low IC50 as greater potency in that assay.

Data on 12 compounds can be found in patent US10005750B2, “Developing potent urate transporter inhibitors: compounds designed for their uricosuric action” (priority 2010, dated 2018).

The target in assay [1] is T1, hURAT1 (Homo sapiens, UniProt Q96S37).
T1 sequence (Q96S37 1-553): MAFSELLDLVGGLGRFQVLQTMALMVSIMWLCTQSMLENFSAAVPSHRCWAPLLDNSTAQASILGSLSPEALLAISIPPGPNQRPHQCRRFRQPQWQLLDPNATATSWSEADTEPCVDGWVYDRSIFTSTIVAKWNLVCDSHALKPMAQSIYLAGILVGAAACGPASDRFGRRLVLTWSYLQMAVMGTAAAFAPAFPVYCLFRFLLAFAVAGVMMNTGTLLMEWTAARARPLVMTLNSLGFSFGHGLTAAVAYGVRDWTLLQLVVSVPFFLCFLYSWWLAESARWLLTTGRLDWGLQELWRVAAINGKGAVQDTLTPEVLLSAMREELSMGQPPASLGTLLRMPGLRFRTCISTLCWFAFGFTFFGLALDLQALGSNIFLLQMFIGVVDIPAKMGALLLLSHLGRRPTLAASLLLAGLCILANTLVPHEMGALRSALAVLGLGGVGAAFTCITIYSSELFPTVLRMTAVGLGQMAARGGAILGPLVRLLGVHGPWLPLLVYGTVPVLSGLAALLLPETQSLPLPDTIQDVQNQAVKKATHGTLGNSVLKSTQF
Also noted: expressed in transfected cells; host or cells: Xenopus laevis oocytes injected with capped cRNA. The settings on record: previous results of the applicants' laboratories; cited from earlier work.

For assay [2] the following is noted: oral; 7 (100 mg/kg) versus 4 (300 mg/day) or 5 (1000 mg/day); cited from earlier work.
In assay [3] the target is T1, hURAT1. Description: MDCK-hURAT1 data (Endou and Olkawa, 2009). The class given is cell-based. Also noted: expressed in transfected cells. The following applies: 8 versus 7, MDCK-hURAT1 data.
The target of assay [4] is T1, hURAT1. Briefly: [14C]urate uptake inhibition in Xenopus oocytes expressing hURAT1. The class given is cell-based. More on the design: expressed in transfected cells; host or cells: Xenopus laevis oocytes injected with capped cRNA. The following applies: 60 min; for IC50: 14C-uric acid uptake; for 14C-urate transport inhibition: test compound at 50 μM. How it is done: cRNA synthesis and oocyte injection. The hURATv1 (pCMV6-XL5) plasmids were linearized with XbaI and hURAT2 (pCMV-SPORT6) plasmids were linearized with XhoI. The cRNAs were synthesized in vitro with T7 RNA polymerase (for hURATv1) or SP6 RNA polymerase (for hURAT2) using mMessage mMachine® High yield capped RNA transcription kit (Ambion, Austin, Tex., USA). The polyadenylation of cRNA at 3′-end was performed using poly(A) tailing kit (Ambion, Austin, Tex., USA). Female Xenopus frogs (African clawed frogs; 95-120 g) were purchased from Sato Zoushoku (Chiba, Japan) and nurtured in tap water (19±3° C.). […] The oocytes were washed in Ca^2+-free solution and transferred to ND96 solution (96.0 mM NaCl, 2.0 mM KCl, 1.0 mM CaCl2, 1.0 mM MgCl2.6H2O and 5.0 mM HEPES, pH 7.5). Defolliculated Xenopus oocytes (stage 1V and V) were injected with 25 ng of capped cRNA and incubated at 18° C. for 2-3 days in ND96 solution containing gentamicin (50 μg/ml) and 2.5 mM sodium pyruvate.
Inhibition study. After incubation of cRNA-injected oocytes (2-3 days), uptake experiments were performed at room temperature in ND96 solution. […] The uptake was terminated by washing the oocytes with ice-cold uptake solution (5 times @ 1.0 ml each) after 60 min of incubation. The oocytes were solubilized with 5% (w/v) SDS and the radioactivity content determined using liquid scintillation counter (Aloka 3100; Aloka Co., Ltd. Tokyo, Japan). The urate uptake by non-injected (control) oocytes was subtracted from oocytes expressing hURAT1, hURATv1 or hURAT2. The data are presented and reported as the % inhibition. The IC50 data were conducted using different compound concentrations.
We conducted a general screen where ^14C-uric acid ([…]) and test compound (50 μM) were placed in the extracellular fluid. Radioactivity inside the oocyte was analyzed after 60 min. […] The IC50 values were generated using a sigmoidal dose-response (variable slope) relationship.

Assay [5] has as its system hURAT1, hURAT2, and hURATv1. Description: combined % inhibition of urate transport in oocytes expressing hURAT1, hURAT2 or hURATv1. The assay is classed as cell-based, human. The following applies: sum over the three transporters. The protocol:
cRNA synthesis and oocyte injection. The hURATv1 (pCMV6-XL5) plasmids were linearized with XbaI and hURAT2 (pCMV-SPORT6) plasmids were linearized with XhoI. The cRNAs were synthesized in vitro with T7 RNA polymerase (for hURATv1) or SP6 RNA polymerase (for hURAT2) using mMessage mMachine® High yield capped RNA transcription kit (Ambion, Austin, Tex., USA). The polyadenylation of cRNA at 3′-end was performed using poly(A) tailing kit (Ambion, Austin, Tex., USA). Female Xenopus frogs (African clawed frogs; 95-120 g) were purchased from Sato Zoushoku (Chiba, Japan) and nurtured in tap water (19±3° C.). Oocytes (1.23±0.10 mg/oocyte) isolated from Xenopus laevis were defolliculated with 1.0 mg/ml collagenase in Ca^2+-free solution (96.0 mM NaCl, 2.0 mM KCl, 1.0 mM MgCl2.6H2O and 5.0 mM HEPES, pH 7.5) at 25+2° C. for 2.0 h. The oocytes were washed in Ca^2+-free solution and transferred to ND96 solution (96.0 mM NaCl, 2.0 mM KCl, 1.0 mM CaCl2, 1.0 mM MgCl2.6H2O and 5.0 mM HEPES, pH 7.5). Defolliculated Xenopus oocytes (stage 1V and V) were injected with 25 ng of capped cRNA and incubated at 18° C. for 2-3 days in ND96 solution containing gentamicin (50 μg/ml) and 2.5 mM sodium pyruvate.
Inhibition study. […] The oocytes were solubilized with 5% (w/v) SDS and the radioactivity content determined using liquid scintillation counter (Aloka 3100; Aloka Co., Ltd. Tokyo, Japan). […]

As to `CCc1oc2ccccc2c1C(=O)c1cc(Br)c(O)c(Br)c1` [Compound 7, (3,5-Dibromo-4-hydroxyphenyl)(2-ethylbenzofuran-3-yl)methanone], the hURAT1 inhibitor properties entry at hURAT1 [1] was “potent”. In assay [2], the “physiological effect (lowers urate level)” value is listed as “greater physiological effect”.
Compound `CCc1oc2cc(O)ccc2c1C(=O)c1cc(Br)c(O)c(Br)c1` [Compound 8, (3,5-dibromo-4-hydroxyphenyl)(2-ethyl-6-hydroxy-benzofuran-3-yl)methanone] registered a fold difference at hURAT1 [3] of 5.7 fold. Further, the IC50 against hURAT1 [4] came out at 138 nM. Besides, on hURAT1 [1], the hURAT1 inhibitor properties entry is on record as “potent”.
Turning to `CCc1oc2ccccc2c1C(=O)c1ccc(OC)cc1` [Compound 12, (2-Ethylbenzofuran-3-yl)(4-methoxyphenyl)methanone], the 14C-urate transport inhibition entry at hURAT1 [4] was “weak-to-no”.
In turn, `CCc1oc2ccccc2c1C(=O)c1ccc(O)cc1` [Compound 13, (2-Ethylbenzofuran-3-yl)(4-hydroxyphenyl)methanone, reference compound] had an IC50 against hURAT1 [4] of 2800 nM.
Regarding `CCc1oc2ccc(OC)cc2c1C(=O)c1ccc(OC)cc1` [Compound 14, (2-Ethyl-5-methoxybenzofuran-3-yl)(4-methoxyphenyl)methanone], on hURAT1 [4], the 14C-urate transport inhibition result is listed as “weak inhibition”.
Consider `CCc1oc2c(OC)cccc2c1C(=O)c1ccc(OC)cc1` [Compound 19, (2-Ethyl-7-methoxybenzofuran-3-yl)(4-methoxyphenyl)methanone], for which the 14C-urate transport inhibition result on hURAT1 [4] is on record as “weak inhibition”.
`CCc1oc2cc(OC)ccc2c1C(=O)c1ccc(O)cc1` [Compound 30, (2-Ethyl-6-methoxybenzofuran-3-yl)(4-hydroxyphenyl)methanone]: the IC50 against hURAT1 [4] stood at 3900 nM. This lies in the single-digit micromolar range.
`CCc1oc2cc(O)ccc2c1C(=O)c1ccc(OC)cc1` [Compound 31, (2-Ethyl-6-hydroxybenzofuran-3-yl)(4-methoxyphenyl)methanone] returned an IC50 against hURAT1 [4] greater than 50000 nM.
In turn, `CCc1oc2cc(O)ccc2c1C(=O)c1ccc(O)cc1` [Compound 32, (2-ethyl-6-hydroxybenzofuran-3-yl)(4-hydroxyphenyl)methanone] registered a 50% inhibitory concentration (IC50) against hURAT1 [4] of 1100 nM.
Take `CCc1cc2cc(OC)cc(C(=O)c3cc(Br)c(O)c(Br)c3)c2o1` [Compound 43]: on hURAT1 [4], the midpoint of inhibition, the IC50, lay at 1440 nM.
For the compound `CCc1cc2cc(O)cc(C(=O)c3cc(Br)c(O)c(Br)c3)c2o1` [Compound 44, (3,5-Dibromo-4-hydroxyphenyl)(2-ethyl-5-hydroxybenzofuran-7-yl)methanone], at hURAT1 [4], inhibition was half-maximal at 287 nM (IC50). This IC50 lies about 5-fold lower than the previous one.
Consider `CCc1oc2ccccc2c1C(=O)c1cc(Br)c(OC)c(Br)c1` [Compound 85, (3,5-Dibromo-4-methoxyphenyl)(2-ethylbenzofuran-3-yl)methanone], for which the “combined % inhibition for hURAT1, hURAT2, and hURATv1” value in assay [5] is less than 160%.
